# Experimental data: paper PMC10785756, “Hydrolysis of Antimicrobial Peptides by Extracellular Peptidases in Wastewater” (Environmental Science & Technology, 2023)
# Like-named read-outs stand apart in the source and are kept apart here. Peptide text beside a SMILES is read from it.
# What was measured:
# [1] = tested on: extracellular wastewater peptidases (pool I extracts from WWTP influents); experiment: Absolute quantification of transformation products (TPs) formed during AMP incubation with wastewater extracts; assay type: in vitro ADME
# Description: We thawed enzyme extracts and transferred 1.35 mL to 2 mL protein LoBind Eppendorf tubes. For autoclaved controls, extract aliquots of 1.5 mL were autoclaved for 20 min at 121 °C and 2 bar (Wolf Sanoclav LaS-MCS-J) and 1.35 mL of the autoclaved extracts were transferred into 2 mL protein LoBind Eppendorf tubes. We then spiked 150 μL of the AMP stock solution containing all AMPs at 10 μg/mL to the enzyme extracts or 1.35 mL of ultrapure water. […] Triplicate incubations were conducted for the autoclaved and active extracts with spiked AMP. After AMP spiking, we mixed the solutions by inverting the vials and incubating them at 20 °C under horizontal shaking at 300 rpm. To stop enzymatic reactions at pre-defined sampling time points (i.e., 2 min, 30 min, 1 h, 2 h, and 4 h), we transferred 150 μL of the incubation solution to 450 μL of acetonitrile containing 1% (v/v) formic acid in 1.5 mL protein LoBind Eppendorf tubes, mixed the resulting solution by inverting the tube and by horizontally shaking it at 300 rpm for 2 min at 20 °C, and centrifuged samples at 16,000g for 1 min. This protocol step was conducted according to Luther et al.[9] We then transferred the supernatant into a fresh 1.5 mL protein LoBind Eppendorf tube and dried it in a SpeedVac vacuum concentrator (30 °C for approximately 6 h). To resolubilize AMPs, we added 150 μL of water containing 5% (v/v) acetonitrile and 0.1% (v/v) formic acid, vortexed the samples, and centrifuged them for 10 s at 1000g at room temperature. We transferred the solution into QuanRecovery HPLC vials (Waters, 186009186) and stored the samples at −20 °C until analysis. For method development, selected (and indicated) samples were sonicated (Sonorex Super RK 106, Bandelin, max 480 W) for 5 min at different steps of the sample preparation process.
# We analyzed AMPs using UHPLC (Thermo Scientific Dionex Ultimate 3000) equipped with a Waters XSelect PREMIER CSH C18 column (article number: 186009870) coupled to HRMS (Thermo QExactive). […] We used Skyline (version 20.2.0.343) to analyze the raw data. Criteria for parent peptides and hydrolysis product identification were set as described before:[31]m/z deviation <2 ppm, MS/MS fragments with m/z deviation <5 ppm, and reasonable chromatographic peak shape. For products, the peak area had to either increase throughout the incubation experiment or first increase and then decrease.
# To learn about the enzymatic hydrolysis pathways of AMPs that we found to be rapidly biotransformed by enzymes in wastewater extracts, we predicted all products of single peptide bond hydrolysis reactions and screened our data-dependent high-resolution mass spectrometry data for experimental evidence in support of the predicted hydrolysis products. These analyses were conducted for the AMPs with the highest biotransformation extents (i.e., >0.5 in at least two WWTPs), namely, cecropin P1, omiganan, and R8. The following requirements for transformation products (TPs) were defined: at least three amino acids, peak area either increases during the incubation experiment or first increases and then decreases, peak area exceeds that in AMP-free enzyme extract by >5-fold and that in spiked autoclaved extracts by >6-fold, and mass deviation <2 ppm from the calculated exact mass. Mass lists, mass deviations, and retention times of all TPs can be found in Tables S6–S11. We further predicted TPs formed via exocleavage mechanisms (i.e., cleavage of one or two terminal amino acids simultaneously from the C- and N- terminus of the peptide) and screened for these TPs in the HRMS data.
# For cecropin P1, we performed absolute quantification for TPs II, III, IV, V, VI, and X and found the highest concentrations for TP III. Up to 8.8% of spiked cecropin P1 is converted to TP III during incubations with wastewater extract. For TP II, the conversion ranges from 3.7–5.7%, and for TP V and VI, conversions range between 1.5 and 4.9 and 2.1 and 2.9%, respectively. […]
# [2] = tested on: extracellular wastewater peptidases (pool I extracts from WWTP influents); experiment: AMP incubation with active dissolved extracellular wastewater extracts (pool I) from WWTP influents; assay type: in vitro ADME
# Description: We took samples from four municipal WWTPs in Austria ([…], and D). […] Where existing, we sampled the following five stages along the wastewater treatment process: influent, primary clarification tank, high-load and low-load aeration tanks, and effluent. […] We took 2 × 500 mL grab samples at each stage using a plastic beaker. We transferred the samples into 500 mL glass bottles leaving roughly one-third of the bottle empty, transported them to the lab, and pooled duplicate samples for further processing. Enzyme extraction started within 1 h after sampling. For total suspended solid (TSS) determination, we filtered 20 mL of each sample through a preweighed, dry GF/F Whatman glass microfiber filter (Sigma-Aldrich, WHA1825047) using a vacuum filtration system, dried the filters at 105 °C for 2 h, and determined the TSS contents from the weight difference. […] Otherwise, the extraction process was the same for pools I and II. All extractions were performed in triplicate, and extracts were kept on ice until further use. […] Triplicate incubations were conducted for the autoclaved and active extracts with spiked AMP. […] This protocol step was conducted according to Luther et al.[9] We then transferred the supernatant into a fresh 1.5 mL protein LoBind Eppendorf tube and dried it in a SpeedVac vacuum concentrator (30 °C for approximately 6 h). […] We transferred the solution into QuanRecovery HPLC vials (Waters, 186009186) and stored the samples at -20 °C until analysis. For method development, selected (and indicated) samples were sonicated (Sonorex Super RK 106, Bandelin, max 480 W) for 5 min at different steps of the sample preparation process. We analyzed AMPs using UHPLC (Thermo Scientific Dionex Ultimate 3000) equipped with a Waters XSelect PREMIER CSH C18 column (article number: 186009870) coupled to HRMS (Thermo QExactive). We injected 10 μL of each sample and applied a flow rate of 0.4 mL/min using the following eluent gradient (A: ultrapure water, B: […] Detection parameters were chosen as follows: […] We used Skyline (version 20.2.0.343) to analyze the raw data. […] For products, the peak area had to either increase throughout the incubation experiment or first increase and then decrease.
# [3] = tested on: dissolved extracellular wastewater enzymes derived from aeration tanks of WWTPs; settings: cited from earlier work
# Description: Our results on daptomycin are consistent with an earlier study that reported daptomycin concentrations to be stable during its incubation with dissolved extracellular wastewater enzymes derived from aeration tanks of WWTPs.[33] We note that daptomycin concentrations in experiments with autoclaved controls were lower compared to active extracts for ...
# [4] = maximum TP concentration corrected for sorption to the wastewater matrix
# [5] = maximum TP concentration during incubation of parent AMP with wastewater extracts, synthetic standards, HPLC-HRMS
# [6] = pool I influent extracts, WWTPs A-D, absolute quantification with synthetic peptide standards, HPLC-HRMS, triplicate incubations
# [7] = pool I influent extracts, WWTPs A-D, active compared with autoclaved extracts, 20 °C, up to 4 h, HPLC-HRMS, triplicate incubations
compound,measurement,setting,value
CC(C)[C@H](N)C(=O)N[C@@H](Cc1ccccc1)C(=O)NCC(=O)N[C@@H](CCCCN)C(=O)N[C@H](C(=O)O)C(C)C [VFGKV (VII)] (H-VFGKV-OH),Potential conc. considering sorption,[1]; [4],47.1 µg/L
same,Maximum conc. detected in exp.,[1]; [5],32.1 µg/L
CC(C)C[C@H](NC(=O)[C@@H](N)Cc1ccccc1)C(=O)NCC(=O)N[C@@H](CCCCN)C(=O)N[C@H](C(=O)N[C@@H](Cc1ccccc1)C(=O)O)C(C)C [FLGKVF (I)] (H-FLGKVF-OH),Potential conc. considering sorption,[1]; [4],101.9 µg/L
same,Maximum conc. detected in exp.,[1]; [5],78.3 µg/L
same,conversion of spiked parent AMP to the TP during incubation with wastewater extract,[1]; [6],Up to 7.8%
colistin B,removal by biotransformation in active wastewater extracts (in words),[2],biotransformed
CC(C)C[C@H](NC(=O)[C@@H](N)Cc1ccccc1)C(=O)NCC(=O)O [FLG (IV)] (H-Phe-Leu-Gly-OH),Maximum conc. detected in exp.,[1],22.8 µg/L
same,Potential conc. considering sorption,[1],29.3 µg/L
CC[C@H](C)[C@H](NC(=O)[C@H](C)N)C(=O)N[C@@H](CCC(N)=O)C(=O)NCC(=O)NCC(=O)N1CCC[C@H]1C(=O)N[C@@H](CCCNC(=N)N)C(=O)O [AIQGGPR (V)] (H-AIQGGPR-OH),Potential conc. considering sorption,[1]; [4],78.2 µg/L
same,Maximum conc. detected in exp.,[1]; [5],48.6 µg/L
daptomycin,daptomycin concentration during incubation with dissolved extracellular wastewater enzymes,[3],stable
same,removal by biotransformation in active wastewater extracts (in words),[2]; [7],did not observe substantial removal
CC(C)C[C@H](NC(=O)[C@@H](N)Cc1ccccc1)C(=O)NCC(=O)N[C@@H](CCCCN)C(=O)N[C@H](C(=O)O)C(C)C [FLGKV (II)] (H-FLGKV-OH),Potential conc. considering sorption,[1]; [4],19.5 µg/L
same,Maximum conc. detected in exp.,[1]; [5],16.5 µg/L
omiganan,"biotransformation extent (eq 1, from concentrations in active and autoclaved extracts)",[2],> 0.5
same,removal by biotransformation in active wastewater extracts (in words),[2],rapidly removed to nonquantifiable concentrations
CC[C@H](C)[C@H](N)C(=O)N[C@@H](CC(C)C)C(=O)N[C@@H](CCCNC(=N)N)C(=O)N[C@@H](Cc1c[nH]c2ccccc12)C(=O)N1CCC[C@H]1C(=O)N[C@@H](Cc1c[nH]c2ccccc12)C(=O)N[C@@H](Cc1c[nH]c2ccccc12)C(=O)N1CCC[C@H]1C(=O)O [ILRWPWWP (I)] (H-ILRWPWWP-OH),Maximum conc. detected in exp.,[1],6.9 µg/L
same,Potential conc. considering sorption,[1],8.1 µg/L
same,conversion of spiked parent AMP to the TP during incubation with wastewater extract,[1],less than 1%
CC[C@H](C)[C@H](N)C(=O)N[C@@H](CCC(N)=O)C(=O)NCC(=O)NCC(=O)N1CCC[C@H]1C(=O)N[C@@H](CCCNC(=N)N)C(=O)O [IQGGPR (III)] (H-IQGGPR-OH),Potential conc. considering sorption,[1]; [4],124.8 µg/L
same,Maximum conc. detected in exp.,[1]; [5],87.8 µg/L
same,conversion of spiked parent AMP to the TP during incubation with wastewater extract,[1]; [6],Up to 8.8%
colistin A,removal by biotransformation in active wastewater extracts (in words),[2],biotransformed
same,"detectable removal during incubation, of the amounts detected at the first time point, in active extracts","[2]; pool I influent extracts, WWTPs A-D, all AMPs spiked together (150 μL of 10 μg/mL into 1.35 mL extract), 20 °C, 300 rpm, sampling 2 min to 4 h, HPLC-HRMS, triplicate incubations, maximum over WWTPs",up to 50%
CC(C)[C@H](NC(=O)[C@H](CCCCN)NC(=O)CNC(=O)[C@H](Cc1ccccc1)NC(=O)[C@@H](NC(=O)[C@H](C)N)C(C)C)C(=O)O [AVFGKV (V)] (H-AVFGKV-OH),Potential conc. considering sorption,[1]; [4],30.0 µg/L
same,Maximum conc. detected in exp.,[1]; [5],27.5 µg/L
bacitracin A,removal by biotransformation in active wastewater extracts (in words),[2]; [7],did not observe substantial removal
CC(C)C[C@H](NC(=O)[C@H](Cc1c[nH]c2ccccc12)NC(=O)[C@@H](N)CO)C(=O)N[C@@H](CO)C(=O)N[C@@H](CCCCN)C(=O)N[C@H](C(=O)N[C@@H](C)C(=O)O)[C@@H](C)O [SWLSKTA (VI)] (H-SWLSKTA-OH),Potential conc. considering sorption,[1]; [4],36.4 µg/L
same,Maximum conc. detected in exp.,[1]; [5],28.6 µg/L
CC(C)C[C@H](NC(=O)[C@H](Cc1c[nH]c2ccccc12)NC(=O)[C@@H](N)CO)C(=O)N[C@@H](CO)C(=O)O [SWLS (II)] (H-SWLS-OH),Potential conc. considering sorption,[1]; [4],69.5 µg/L
same,Maximum conc. detected in exp.,[1]; [5],57.1 µg/L
same,conversion of spiked parent AMP to the TP during incubation with wastewater extract,[1]; [6],3.7–5.7%
CC(C)C[C@H](NC(=O)[C@H](Cc1c[nH]c2ccccc12)NC(=O)[C@@H](N)CO)C(=O)O [SWL (IV)] (H-Ser-Trp-Leu-OH),Maximum conc. detected in exp.,[1],2.7 µg/L
same,Potential conc. considering sorption,[1],3.4 µg/L
same,conversion of spiked parent AMP to the TP during incubation with wastewater extract,[1],less than 1%
CC(C)C[C@H](NC(=O)[C@H](Cc1c[nH]c2ccccc12)NC(=O)[C@@H](N)CO)C(=O)N[C@@H](CO)C(=O)N[C@@H](CCCCN)C(=O)N[C@H](C(=O)O)[C@@H](C)O [SWLSKT (X)] (H-SWLSKT-OH),Potential conc. considering sorption,[1]; [4],3.7 µg/L
same,Maximum conc. detected in exp.,[1]; [5],2.9 µg/L
same,conversion of spiked parent AMP to the TP during incubation with wastewater extract,[1]; [6],less than 1%
murepavadin,removal by biotransformation in active wastewater extracts (in words),[2],did not observe substantial removal
